Assays:
[1] = bovine, in vivo
From the text: (§1) This invention relates to the use of trichloromelamine as an active agent for sanitizing the udder and teat areas of cows. Like bleach TCM produces the Cl+ ion which is capable of killing a wide spectrum of bacteria. […] Solutions of sodium hypochlorite are generally not suitable for use on living tissue.

[2] = tested on: bacteria on the udder and teat areas; experiment: sanitizing the udder and teat areas with a solution of TCM; assay type: in vivo
From the text: as §1, with “tissue. […] The process of this invention is effected by spraying the udder and teat areas of a bovine with a solution of TCM. The process may be further effected by dipping the udder and teat areas in a solution of TCM. The process of this invention effectively kills all bacteria as may be on the udder and teat areas of a bovine in less than one minute.” for “tissue.”

trichloromelamine [TCM]
effect on treated living tissue [1]: not adversely affected | residual effect on the udder and teat areas ([2]; residual TCM left after treatment): inhibits future bacterial contamination | time to kill the troublesome bacteria ([2]; soft living tissue treated in accordance with the invention): killed in a matter of seconds

— patent US7344727B2, “Process for cleaning bovine teats” (H&S Chemical Company, Inc., priority 2002, dated 2008)
